Columns and labels:
[1] = system: TPA induced edematization in ears; experiment: Ear edema induction test with TPA (12-O-tetradecanoylphorbol-13-acetate); type: in vivo, ICR male mouse; conditions: 0.5 mg/ear; for Rate of inhibition (%): 4 h after TPA, relative to rate of edematization of control group taken as 100; for Rate of edematization (%): both sides of right ear, 4 h after TPA (10 μl of 40 μg/ml), control group 161.1
Method: Four hours after the application of TPA, the center of right and left ears was cut out with a punch with a diameter of 6.5 mm to measure the weights. The rate of edematization of ears was calculated according to the following formula: [formula] The rate of edema enlargement inhibition was determined taking the rate of edematization of the control group to which no compound was applied as 100.

[2] = system: 5-lipoxygenase; conditions: background, as reported; cited from earlier work
[3] = system: 5-lipoxygenase; experiment: 5-Lipoxygenase inhibiting activity (5-HETE production); type: biochemical, rat; conditions: RBL-1 5-lipoxygenase; 5-HETE by HPLC; values only in FIG. 1
Method: A sample of 5-lipoxygenase was prepared from basophilic leukemia cells of rat (RBL-1). First, the RBL-1 was cultured in an MEM medium (manufactured by Nissui Pharmaceutical Co.) containing 0.0292% of L-glutamine and 10% of FCS under conditions of 5% CO2 and at 37° C. for 3 days. After culture, the cells were collected by centrifuge (1000 rpm, 10 min., 4° C.) and washed twice with Dulbeccol's PBS (-) (manufactured by Nissui Pharmaceutical Co.) . The cells were suspended in 50 ml of Tris-HCl buffer (pH 7.4) at a concentration of 7.5×10^7 cells/ml. The cell suspension was ultrasonically treated in an ice bath and centrifuged (1300 rpm, 30 min., 4° C.) to obtain a 5- lipoxygenase sample as supernatant.
76 μl of 50 mM Tris-HCl buffer (pH 7.4) containing 2.56 mM of CaCl2 and 2.56 mM of ATP and 20 μl of 5-lipoxygenase sample prepared above were added to 2μl of a solution containing a prescribed amount of the diarylheptanoide derivative (1) prepared in Example 1 in DSMO. The mixture was incubated at 37° C. […] The amount of 5-HETE in the supernatant was measured by HPLC (column: Nova-pak 5C18; eluant: a 60:40 acetonitrile:0.05 M KH2 PO4 solution with 5 mM trihexyl bromide added; flow rate: 0.8 ml/min.; wavelength: 235 nm). The amount of 5-HETE produced was calculated from the peak area of the 5-HETE. […]

[4] = system: ears of mice; experiment: Toxicity on application to ears of mice; type: in vivo; conditions: 5 mg/ear, 10 times the effective concentration

Row | Structure (SMILES) | Rate of inhibition (%) [1] [%] | Rate of edematization (%) [1] [%] | 5-lipoxygenase inhibiting activity (in words) [2] | effect compared with comparative compound (6) (in words) [1] | effect for inhibiting TPA induced edematization in ears (in words) [1] | 5-lipoxygenase inhibiting effect (in words) [3] | toxicity (in words) [4]
1 | O=C(C=Cc1ccc(O)c(O)c1)CCCCc1ccccc1 [(6), 1-(3,4-dihydroxyphenyl)-7-phenyl-1-heptene-3-one, reference compound] | 84.5 | 24.9 | most strong 5-lipoxygenase inhibiting action |  |  |  | 
2 | COc1cc(C=CC(=O)CCCCc2ccccc2)cc(OC)c1O [Compound (1), 1-(3,5-dimethoxy-4-hydroxyphenyl)-7-phenyl-1-heptene-3-one] | 96.1 | 6.3 |  | stronger than that of the comparative compound | strong effect for inhibiting TPA induced edematization in ears | strong 5-lipoxygenase inhibiting effect | No toxicity was exhibited
3 | COc1cc(CCC(=O)CCCCc2ccccc2)ccc1O [Yakuchinone-A] |  |  | exhibiting a 5-lipoxygenase inhibiting activity |  |  |  | 
4 | COc1cc(/C=C/C(=O)CCCCc2ccccc2)ccc1O [Yakuchinone-B] |  |  | exhibiting a 5-lipoxygenase inhibiting activity |  |  |  | 

— patent publication US5763673A, “Diarylheptanoide derivative and pharmaceutical composition comprising the same” (Kabushiki Kaisha Yakult Honsha, priority 1994, dated 1998)
